In patent US20140140962A1, “VIRUSES MODIFIED WITH UNNATURAL MOIETIES AND METHODS OF USE THEREOF” (priority 2011, published 2014):

Experiments:
[1] = system: cancer stem cell related genes (Oct4, Sox2, Nanog, and c-Myc); settings: 3 unrelated invasive colon cancer cell lines; cited from earlier work
[2] = system: drug resistant cancer cell lines; settings: cited from earlier work
HEK 293 cells = assay: Plaque forming assay (infectivity); assay type: cell-based; settings: inferred from plaque assays, even at high concentration
Procedure: Dulbecco's modified Eagle's medium (DMEM), RPMI 1640, penicillin/streptomycin and 0.5% trypsin-EDTA were purchased from GIBCO (Grand Island, N.Y.). RPMI 1640 minus folic acid was obtained from Sigma. Fetal calf serum (FCS) and bovine calf serum (BCS) was purchased from HyClone (Logan, Utah). 293 cells were maintained in DMEM supplemented with 10% BCS, 2 mM glutamine, 100 U/mL penicillin, 100 μg/mL streptomycin. 4T1 cells (ATCC) were maintained in RPMI 1640 medium containing 10% FCS, 2 mM L-glutamine, 100 U/mL penicillin, and 100 μg/mL streptomycin. For 4T1 cells grown without folate, RPMI 1640 minus folic acid was supplemented with 10% FCS, 0.3 mg/mL L-glutamine, 2 mg/mL sodium bicarbonate, 100 U/mL penicillin, 100 μg/mL streptomycin. All cells were maintained in 100×20 mm tissue culture dishes obtained from BD biosciences (Franklin Lakes, N.J.) at 37° C. and 5% CO2. HEK 293 cells in […] culture plates were infected with 400 μL of azide labeled virus particles at concentrations of 10^3 particles/mL. The plates were overlaid with complete media containing 2.8% bactoagar and 10% BCS. […] The plaques were counted within a day after the final overlay.
HEK 293 cells cultivated in 6 mL culture plates were infected with 400 μL of azide labeled virus particles at concentrations of 10^3 particles/ml. […] The plaques were counted within a day after the final overlay.

| Structure (SMILES) | inhibition of cancer stem cell related genes [1] | cytotoxicity against drug resistant cancer cell lines [2] | toxicity to the cells (HEK 293 cells) |
| --- | --- | --- | --- |
| CC(=O)O[C@@]12CO[C@@H]1C[C@H](O)[C@@]1(C)C(=O)[C@H](OC(=O)C3CC3)C3=C(C)[C@@H](OC(=O)[C@H](O)[C@H](C=C(C)C)NC(=O)OC(C)(C)C)C[C@@](O)([C@@H](OC(=O)c4ccccc4)[C@H]21)C3(C)C [SB-T-1214] | substantial inhibition | significantly improved cytotoxicity |  |
| [N-]=[N+]=NCC[C@H](N)C(=O)O [Aha, Azidohomoalanine] |  |  | not toxic to the cells |
